Data taken from patent US8987256B2, “Oxo-heterocyclic substituted carboxylic acid derivatives and the use thereof” (Bayer Intellectual Property GmbH, priority 2008, dated 2015).

Experiments:
[1] = target: T1, recombinant guanylate cyclase reporter cell line (Rattus norvegicus, UniProt P20595); experiment: sGC-activating activity in the CHO reporter cell in vitro; assay type: cell-based
T1 construct: expressed in transfected cells; host or cells: CHO reporter cell line
T1 sequence (P20595 1-619): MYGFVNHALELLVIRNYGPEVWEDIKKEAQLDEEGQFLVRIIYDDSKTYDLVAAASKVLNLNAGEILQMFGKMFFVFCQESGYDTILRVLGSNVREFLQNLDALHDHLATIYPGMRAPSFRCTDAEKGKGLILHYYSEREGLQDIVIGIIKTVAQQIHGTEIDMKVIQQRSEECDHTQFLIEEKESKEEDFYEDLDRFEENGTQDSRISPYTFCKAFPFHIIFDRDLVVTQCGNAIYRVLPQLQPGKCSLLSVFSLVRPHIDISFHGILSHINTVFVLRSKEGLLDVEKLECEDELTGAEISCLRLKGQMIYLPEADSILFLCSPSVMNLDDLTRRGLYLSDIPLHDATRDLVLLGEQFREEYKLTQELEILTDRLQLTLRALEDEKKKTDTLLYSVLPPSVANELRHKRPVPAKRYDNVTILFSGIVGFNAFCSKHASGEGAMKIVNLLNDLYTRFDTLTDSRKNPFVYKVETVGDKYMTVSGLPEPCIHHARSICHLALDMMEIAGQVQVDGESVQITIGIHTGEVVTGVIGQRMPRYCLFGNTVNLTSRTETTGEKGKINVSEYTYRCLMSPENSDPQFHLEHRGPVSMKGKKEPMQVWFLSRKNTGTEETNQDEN
T1 sequence (P19686 1-690 partner): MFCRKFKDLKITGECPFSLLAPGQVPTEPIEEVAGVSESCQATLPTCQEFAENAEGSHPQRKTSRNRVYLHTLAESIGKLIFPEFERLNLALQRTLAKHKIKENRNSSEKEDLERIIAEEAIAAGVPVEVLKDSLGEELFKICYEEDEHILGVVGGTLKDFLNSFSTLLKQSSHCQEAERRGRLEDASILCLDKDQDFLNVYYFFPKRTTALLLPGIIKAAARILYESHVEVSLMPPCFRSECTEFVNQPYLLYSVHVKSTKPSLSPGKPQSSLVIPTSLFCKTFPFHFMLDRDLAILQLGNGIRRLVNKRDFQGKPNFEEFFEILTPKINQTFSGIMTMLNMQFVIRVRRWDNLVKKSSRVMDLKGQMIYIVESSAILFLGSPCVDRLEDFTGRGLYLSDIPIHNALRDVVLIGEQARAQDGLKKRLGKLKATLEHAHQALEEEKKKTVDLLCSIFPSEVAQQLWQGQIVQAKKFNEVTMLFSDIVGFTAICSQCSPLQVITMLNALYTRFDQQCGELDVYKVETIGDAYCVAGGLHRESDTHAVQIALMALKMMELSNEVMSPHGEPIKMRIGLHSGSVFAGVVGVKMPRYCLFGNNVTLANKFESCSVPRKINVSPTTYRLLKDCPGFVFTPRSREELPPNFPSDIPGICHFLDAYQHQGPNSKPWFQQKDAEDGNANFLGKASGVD
Method: The cellular action of the compounds according to the invention is determined at a recombinant guanylate cyclase reporter cell line, as described in F. Wunder et al., Anal. Biochem. 339, 104-112 (2005).

[2] = target: T2, soluble guanylate cyclase (sGC) (Rattus norvegicus, UniProt P20595); experiment: Activating action at the sGC enzyme in vitro (PPi detection, luciferase); assay type: biochemical; conditions: for EC50: read-out: EC50 (concentration at 50% of maximum efficacy), activating action at the sGC enzyme
T2 construct: made in house; host or cells: baculovirus/Sf9 insect cells
T2 sequence (P20595 1-619): T1 sequence (P20595 1-619)
T2 sequence (P19686 1-690 partner): T1 sequence (P19686 1-690 partner)
Method: Soluble guanylate cyclase (sGC) converts on stimulation GTP into cGMP and pyrophosphate (PPi). PPi is detected with the aid of the assay described below. The signal produced in the assay increases as the reaction progresses and serves as a measure of the sGC enzyme activity under the given stimulation.
To carry out the assay, 29 μl of enzyme solution [0-10 nM soluble guanylate cyclase (prepared according to Honicka et al., J. Mol. Med. 77, 14-23 (1999)) in 50 mM TEA, 2 mM MgCl2, 0.1% BSA (fraction V), 0.005% Brij®, pH 7.5] are initially introduced into a microplate, and 1 μl of the substance to be tested (as a serially diluted solution in DMSO) is added. The mixture is incubated at room temperature for 10 min. Then 20 μl of detection mix [1.2 nM Firefly Luciferase (Photinus pyralis luciferase, Promega), 29 μM dehydroluciferin (prepared according to Bitler & McElroy, Arch. Biochem. Biophys. 72, 358 (1957)), 122 μM luciferin (Promega), 153 μM ATP (Sigma) and 0.4 mM DTT (Sigma) in 50 mM TEA, 2 mM MgCl2, 0.1% BSA (fraction V), 0.005% Brij®, pH 7.5] are added. The enzyme reaction is started by adding 20 μl of substrate solution [1.25 mM guanosine 5′-triphosphate (Sigma) in 50 mM TEA, 2 mM MgCl2, 0.1% BSA (fraction V), 0.005% Brij®, pH 7.5] and measured continuously in a luminometer. The extent of the stimulation by the substance to be tested can be determined relative to the signal of the unstimulated reaction.
The activation of heme-free guanylate cyclase is examined by addition of 25 μM of 1H-1,2,4-oxadiazolo[4,3-a]quinoxalin-1-one (ODQ) to the enzyme solution and subsequent incubation for 30 minutes and compared to the stimulation of the native enzyme.

saphenous artery rings = experiment: Vasorelaxant effect in vitro (phenylephrine-contracted artery rings); set-up: species or system Rabbits; conditions: concentration reducing phenylephrine-induced contraction by 50%
Method: Rabbits are anesthetized and sacrificed by intravenous injection of thiopental sodium (about 50 mg/kg) and exsanguinated. The saphenous artery is removed and divided into rings 3 mm wide. The rings are mounted singly on in each case a pair of triangular hooks open at the end and made of 0.3 mm-thick special wire (Remanium®). Each ring is placed under an initial tension in 5 ml organ baths with Krebs-Henseleit solution which is at 37° C., is gassed with carbogen and has the following composition: NaCl 119 mM; KCl 4.8 mM; CaCl2×2H2O 1 mM; MgSO4×7H2O 1.4 mM; KH2PO4 1.2 mM; NaHCO3 25 mM; glucose 10 mM; bovine serum albumin 0.001%. The force of contraction is detected with Statham UC2 cells, amplified and digitized via A/D converters (DAS-1802 HC, Keithley Instruments, Munich) and recorded in parallel on chart recorders. Contractions are induced by addition of phenylephrine.
After several (generally 4) control cycles, the substance to be investigated is added in each further run in increasing dosage, and the level of the contraction achieved under the influence of the test substance is compared with the level of the contraction reached in the last preceding run. The concentration necessary to reduce the contraction reached in the preceding control by 50% is calculated from this (IC50). The standard application volume is 5 μl. The proportion of DMSO in the bath solution corresponds to 0.1%.

MEC (minimum effective concentration), sGC-activating activity in the CHO reporter cell [1] [nM] | MEC (minimum effective concentration), activating action at the sGC enzyme [2] [nM] | EC50 [2] [nM] | IC50 (saphenous artery rings; Oryctolagus cuniculus) [nM] | IC50 (saphenous artery rings) [nM] | SMILES
3 | 0.2 | 5.4 | 45 | – | O=C(Nc1cccc(CC2(C(=O)O)CC2)c1)C(c1ccc(Cn2nc(-c3ccccc3)ccc2=O)cc1)C1CCCC1 (stereo not shown) [Example 156, 1-{3-[(cyclopentyl{4-[(6-oxo-3-phenylpyridazin-1(6H)-yl)methyl]phenyl}acetyl)amino]benzyl}-cyclopropanecarboxylic acid]
0.1 | 0.4 | 19 | 11 | – | O=C(Nc1cccc(CC2(C(=O)O)CC2)c1)[C@H](c1ccc(CN2Cc3c(F)cccc3C2=O)cc1)C1CCCC1 [Example 214]
0.2 | 0.1 | 1.5 | 37 | – | CC(C(C(=O)Nc1cc(CC2(C(=O)O)CC2)ccc1F)c1ccc(CN2N=C(c3ccccc3)OCC2=O)cc1)C(F)(F)F (stereo not shown) [Example 186, 1-{4-fluoro-3-[(4,4,4-trifluoro-3-methyl-2-{4-[(5-oxo-2-phenyl-5,6-dihydro-4H-1,3,4-oxadiazin-4-yl)methyl]phenyl}butanoyl)amino]benzyl}-cyclopropanecarboxylic acid]
10 | 5.1 | 330 | 52 | – | CC(C)(Cc1cccc(NC(=O)C(c2ccc(Cn3nc(-c4ccccc4)ccc3=O)cc2)C2CCCC2)c1)C(=O)O (single isomer, unassigned) [Example 138, 3-{3-[(cyclopentyl{4-[(6-oxo-3-phenylpyridazin-1(6H)-yl)methyl]phenyl}acetyl)amino]phenyl}-2,2-dimethylpropanoic acid]
1 | 1.4 | 73 | 180 | – | CCC(C)C(C(=O)Nc1cccc2c1CC(C)(C(=O)O)C2)c1ccc(CN2N=C(c3ccccc3)OCC2=O)cc1 (single isomer, unassigned) [Example 86, 2-Methyl-4-[(3-methyl-2-{4-[(5-oxo-2-phenyl-5,6-dihydro-4H-1,3,4-oxadiazin-4-yl)methyl]-phenyl}pentanoyl)amino]-2,3-dihydro-1H-indene-2-carboxylic acid]
0.3 | 0.4 | 2.4 | – | 4.9 | CC(C(C(=O)Nc1cccc(CC2(C(=O)O)CC2)c1)c1ccc(CN2N=C(c3ccccc3)OCC2=O)cc1)C(F)(F)F (single isomer, unassigned) [Example 166, 1-{3-[(4,4,4-trifluoro-3-methyl-2-{4-[(5-oxo-2-phenyl-5,6-dihydro-4H-1,3,4-oxadiazin-4-yl)methyl]phenyl}-butanoyl)amino]benzyl}cyclopropanecarboxylic acid]
3 | 4.1 | 130 | 110 | – | CC1(C(=O)O)Cc2cccc(NC(=O)C(c3ccc(CN4N=C(c5ccccc5)OCC4=O)cc3)C3CCCC3)c2C1 (single isomer, unassigned) [Example 46, 4-[(Cyclopentyl{4-[(5-oxo-2-phenyl-5,6-dihydro-4H-1,3,4-oxadiazin-4-yl)methyl]phenyl}-acetyl)amino]-2-methyl-2,3-dihydro-1H-indene-2-carboxylic acid]
3 | – | – | 345 | – | CCC(C)C(C(=O)Nc1cccc(CC(C)(C)C(=O)O)c1)c1ccc(CN2N=C(c3ccccc3)OCC2=O)cc1 (stereo not shown) [Example 143, 2,2-dimethyl-3-{3-[(3-methyl-2-{4-[(5-oxo-2-phenyl-5,6-dihydro-4H-1,3,4-oxadiazin-4-yl)methyl]phenyl}-pentanoyl)amino]phenyl}propanoic acid]
1 | 0.9 | 21 | 158 | – | O=C(Nc1cc(F)cc(CC2(C(=O)O)CC2)c1)C(c1ccc(CN2N=C(c3ccccc3)OCC2=O)cc1)C1CCCC1 (single isomer, unassigned) [Example 237, 1-{3-[(Cyclopentyl{4-[(5-oxo-2-phenyl-5,6-dihydro-4H-1,3,4-oxadiazin-4-yl)methyl]phenyl}acetyl)amino]-5-fluorobenzyl}cyclopropanecarboxylic acid]
3 | 2.5 | 30 | 356 | – | CC(C(C(=O)Nc1cccc(CCC(=O)O)c1)c1ccc(CN2N=C(c3ccccc3)OCC2=O)cc1)C(F)(F)F (single isomer, unassigned) [Example 192, 3-{3-[(4,4,4-Trifluoro-3-methyl-2-{4-[(5-oxo-2-phenyl-5,6-dihydro-4H-1,3,4-oxadiazin-4-yl)methyl]phenyl}butanoyl)amino]phenyl}propanoic acid]
0.3 | – | – | 64 | – | CC(C(C(=O)Nc1cc(CCC(=O)O)ccc1F)c1ccc(CN2N=C(c3ccccc3)OCC2=O)cc1)C(F)(F)F (stereo not shown) [Example 185, 3-{4-fluoro-3-[(4,4,4-trifluoro-3-methyl-2-{4-[(5-oxo-2-phenyl-5,6-dihydro-4H-1,3,4-oxadiazin-4-yl)methyl]-phenyl}butanoyl)amino]phenyl}propanoic acid]
